Active and inactive are the calls of the source. The calls are words filed in the database; no cut-off is given here.
Tests used:
C6 [1] = experiment: Antiproliferative activity against rat C6 cells assessed as decrease in cell viability measured after 48 hrs by MTT assay; assay type: functional, cell-based; settings: for IC50: C6, 48 h
Dihydrofolate reductase = target: T1, Dihydrofolate reductase (Homo sapiens, UniProt P00374); experiment: Inhibition of human dihydrofolate reductase using dihydrofolic acid as substrate preincubated for 1 hr in presence of NADPH followed by substrate addition by enzyme immunoassay
T1 sequence (P00374 whole entry): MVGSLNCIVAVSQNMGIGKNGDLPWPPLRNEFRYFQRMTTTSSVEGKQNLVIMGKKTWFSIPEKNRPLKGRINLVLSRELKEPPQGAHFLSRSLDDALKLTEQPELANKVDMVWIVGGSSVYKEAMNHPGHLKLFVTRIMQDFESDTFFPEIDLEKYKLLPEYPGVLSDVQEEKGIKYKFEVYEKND

C6 [2] = experiment: Cell cycle arrest in rat C6 cells assessed as cell population at G0/G1 phase measured after 24 hrs by propidium iodide staining based flow cytometry analysis; assay type: functional
C6 [3] = experiment: Induction of morphological changes in rat C6 cells assessed as cellular senescence by measuring cell rounding with distorted morphology after 24 hrs by inverted microscopy analysis; assay type: functional, cell-based
C6 [4] = experiment: Cell cycle arrest in rat C6 cells assessed as decrease in cell population at S phase measured after 24 hrs by propidium iodide staining based flow cytometry analysis; assay type: functional
C6 [5] = experiment: Cell cycle arrest in rat C6 cells assessed as increase in cell population at sub G0 phase measured after 24 hrs by propidium iodide staining based flow cytometry analysis; assay type: functional
C6 [6] = experiment: Cell cycle arrest in rat C6 cells assessed as decrease in cell population at G2/M phase measured after 24 hrs by propidium iodide staining based flow cytometry analysis; assay type: functional
C6 [7] = experiment: Induction of morphological changes in rat C6 cells assessed as increase in total length of processes measured after 24 hrs by inverted microscopy analysis relative to control; assay type: functional
UO-31 = experiment: Growth inhibition of human UO31 cells at 10^-5 M incubated for 48 hrs by sulforhodamine B assay relative to control; assay type: functional; settings: UO-31, 48 h, read-out: GI
MCF7 = experiment: Growth inhibition of human MCF7 cells at 10^-5 M incubated for 48 hrs by sulforhodamine B assay relative to control; assay type: functional; settings: MCF7, 48 h, read-out: GI

Structure (SMILES) | inhibition (C6 [1]) | IC50 (C6 [1]) [nM] | IC50 (Dihydrofolate reductase) [nM] | Activity (C6 [2]) | Activity (C6 [3]) | inhibition (C6 [6]) | further results
C[C@H](NC(=O)CNC(=O)c1cccc2c(=O)c3ccccc3[nH]c12)C(=O)O | Dose-dependent effect | 250 to 1500 | 670 | inactive | Active | – | –
COc1cccc2c1C(=O)c1c(O)c3c(c(O)c1C2=O)C[C@@](O)(C(=O)CO)C[C@@H]3O[C@H]1C[C@H](N)[C@@H](O)[C@H](C)O1 | – | – | – | – | – | Active | inhibition (C6 [4]): Active; Activity (C6 [5]): Active
CC1=NN(c2cccc(Cl)c2)C(=O)/C1=C\c1cn(CC(O)Cn2c3ccccc3c(=O)c3ccccc32)c2ccccc12 (racemic) | – | – | 1800 | – | – | – | –
O=C1Nc2ccccc2/C1=C/c1cn(CC(O)Cn2c3ccccc3c(=O)c3ccccc32)c2ccccc12 (racemic) | Dose-dependent effect | 250 to 1500 | 100 | inactive | Active | Active | Activity (C6 [7]): 16 - 18%; inhibition of growth at 10 µM (UO-31): 70%; inhibition of growth at 10 µM (MCF7): 55%
CN1C(=O)C(=Cc2cn(CC(O)Cn3c4ccccc4c(=O)c4ccccc43)c3ccccc23)C(=O)N(C)C1=O (racemic) | – | – | 210 | – | – | – | –

From ChEMBL document CHEMBL4359904, “Structural tuning of acridones for developing anticancer agents targeting dihydrofolate reductase” (Bioorg Med Chem Lett, 2019)
